Measured values: article PMC10714399, “Open Source Antibiotics: Simple Diarylimidazoles Are Potent against Methicillin-Resistant Staphylococcus aureus” (ACS Infectious Diseases, 2023)
≈ marks a conversion by molar mass, not a printed value. Like-named read-outs stand apart in the source and are kept apart here. Each block holds one compound with its values, some of them ahead of it.

Key:
[1] = test system: Staphylococcus aureus ATCC 43300 MRSA; assay: CO-ADD antibacterial assay (growth inhibition, MIC), MRSA; format: cell-based; conditions: read-out: MRSA MIC (CO-ADD)
Procedure: Hit Confirmation of active compounds by whole cell growth inhibition assays was conducted as an 8-point dose response to determine the Minimum Inhibitory Concentration (MIC), in duplicate (n=2). The inhibition of growth is measured against those microorganisms that […]
Included in the Hit Confirmation were 5 bacteria: Escherichia coli, Klebsiella pneumoniae, Acinetobacter baumannii, Pseudomonas aeruginosa and Staphylococcus aureus, and 2 fungi Candida albicans and Cryptococcus neoformans. […]
Assay Parameters Bacteria Fungi HEK293 Haemolysis […]
Duplicate (n=2) Duplicate (n=2) Duplicate (n=2) Duplicate (n=2)
QC Control MIC: Control MIC: Control CC50: Control HC10:
Non-Binding Non-Binding TC, 384-well Polypropylene
Plates Surface (NBS), Surface (NBS), black wall/clear 384-well and 384-well plate 384-well plate bottom polystyrene 384-
Cation-adjusted Yeast Nitrogen DMEM
Media Mueller Hinton Base supplemented 0.9% NaCl
Hit Confirmation outcomes are detailed in individual Project reports, personalised for each Project Submission for each CO-ADD user.
Please see your data sheet with file extension P0XXX_HC_data.xlsx, for example CO-ADD Project P0100, P0100_HC_data.xlsx
Study: HC_data ID: HC-Procedures & Materials
Date: Last updated June 2018 Confidential Page 3 of 11
(1 picture or pasted object on this page, not shown here)
Samples were provided by the collaborator and stored frozen at -20 °C. Samples were prepared in DMSO and water to a final testing concentration of 32 µg/mL or 20 µM (unless otherwise indicated in the data sheet) and serially diluted 1:2 fold for 8 times. Each sample concentration was prepared in 384-well plates, non-binding surface plate (NBS; Corning 3640) for each bacterial/fungal strain, tissue-culture treated (TC-treated; Corning 3712/3764) black for mammalian cell types and polypropylene 384-well (PP; Corning 3657) for haemolysis assays, all in duplicate (n=2), and keeping the final DMSO concentration to a maximum of 0.5%. All the sample preparation was done using liquid handling robots. […]
detailed in the Data sheet for the individual Project.
All bacteria were cultured in Cation-adjusted Mueller Hinton broth (CAMHB) at 37 °C overnight. A sample of each culture was then diluted 40-fold in fresh broth and incubated at 37 °C for 1.5-3 h. The resultant mid-log phase cultures were diluted (CFU/mL measured by OD600), then added to each well of the compound containing plates, giving a cell density of 5×10^5 CFU/mL and a total volume of 50 µL. All the plates were covered and incubated at 37 °C for 18 h without shaking.
Inhibition of bacterial growth was determined measuring absorbance at 600 nm (OD600), using a Tecan M1000 Pro monochromator plate reader. The percentage of growth inhibition was calculated for each well, using the negative control (media only) and positive control (bacteria without inhibitors) on the same plate as references.
The percentage of growth inhibition was calculated for each well, using the negative control (media only) and positive control (bacteria without inhibitors) on the same plate. The MIC […]
by an inhibition ≥ 80%. In addition, the maximal percentage of growth inhibition is reported as DMax, indicating any compounds with partial activity.
Date: Last updated June 2018 Confidential Page 5 of 11
Material Code Brand/Supplier Cat No.
Compound preparation plate, Polypropylene PP Corning 3364
Assay Plates – Antimicrobial
Non-binding surface NBS 384w Corning 3640
Assay Plates – Cytotoxicity
Tissue culture treated Black/Clear bottom 384w Corning 3712
Assay Plates - Haemolysis PP-Haem Corning 3657 […]
Growth media - bacteria CAMHB Bacto Laboratories 212322
Culture agar - fungi YPD Becton Dickinson 242720
Growth media - fungi YNB Becton Dickinson 233520
Resazurin Sigma-Aldrich R7017
Dulbecco's Modified Eagle Medium DMEM Life Technologies 11995-073
Foetal Bovine Serum FBS Bovogen FFBS-500
0.9% NaCl Saline Baxter AHF7124
Sample Name Sample ID MW Conc. Solvent Source […]

[2] = test system: Staphylococcus aureus NCTC 13373 (mecA-positive; methicillin-resistant); assay: In vitro antibacterial activity, MIC (UCL School of Pharmacy assay), MRSA; format: cell-based; conditions: Staphylococcus aureus
Summary of the method: (§1)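 Broth microdilution MIC in isosensitest broth; inoculum from overnight tryptone soya agar culture suspended in PBS to A600 0.1 (~1 × 10^8 CFU/mL), then diluted 1:100. Compounds tested as 2-fold series from 32 to 0.03 μg/mL, DMSO at most 2%; vancomycin as quality control.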

[3] = test system: Enterococcus faecalis ATCC 51299 (vanA-positive; vancomycin-resistant); assay: In vitro antibacterial activity, MIC (UCL), VRE; format: cell-based
Summary of the method: as §1

[4] = HEK293 toxicity, 96-well dose-response (UCL; MTT or resazurin, with or without recovery); format: cell-based, human; conditions: human, HEK293 cells; for Dmax spread between recovery and non-recovery conditions at 24 h, 32 μg/mL: read-out: spread of Dmax values comparing recovery and non-recovery conditions
Procedure: The importance of balancing potency vs MRSA and cytotoxicity led us to examine a subset of compounds more thoroughly for toxicity against human embryonic kidney cell line HEK293. […] Dmax is a parameter that quantifies toxicity at the highest tested concentration (32 μg/mL for all compounds), calculated as reciprocal percentage of viable cells (100 – viability%), where cells either were allowed to recover or viability was measured immediately after treatment. […] Our efforts focused on trying to replicate the original toxicity experiments (by CO-ADD) with tamoxifen using a protocol modified for use with 96-well plates. Given the variability of protocols and results in the literature,[28] it was important to compare with a standard protocol we have reliably used in our own laboratories.[29]−[33] […] Truly “non-toxic” compounds might be expected to show Dmax < 50% for all experiment variations, e.g., 861. […] A large spread of Dmax values comparing recovery and non-recovery conditions larger than 20% is perhaps indicative of a mechanism of toxicity that persists beyond exposure, i.e., cytotoxic compounds that continue to induce toxicity as cells recover and restart dividing, for example, compounds 865, 870, 871, 980, and 981. […] This variability could be driven by interference of the compounds with the fluorescence readout or resorufin build-up as previously described.[27]
HEK293 cells (ATCC, UK) at passage 32 were a kind gift from Dr. Ben Allsop from the Translational Research Office at University College London. Cells were tested for mycoplasma using a MycoAlert Detection Kit (Lonza, Switzerland) as per manufacturer instructions, frozen stocks were stored in liquid nitrogen, and cells were re-tested whenever a new aliquot was thawed.
Cells were maintained in DMEM (Sigma-Aldrich, UK) supplemented with 10% heat-inactivated FBS (Sigma-Aldrich, UK), 1% GlutaMax (ThermoFisher, UK), and 1% sodium pyruvate (Lonza, UK) without antibiotics in an incubator at 37 °C and 5% CO2. Media was changed every 2 days, and cells were passaged every 3–4 days at a subcultivation ratio of 1:10, by detaching the cells with phenol-free TrypLE Express (ThermoFisher, UK), after washing with HBSS Ca^2+/Mg^2+ (ThermoFisher, UK). Up to 55 passages were used throughout the experiments.
(a) Cell seeding: At subculture, a dilute solution of cells was counted using Trypan Blue (Sigma-Aldrich, UK) and a hemocytometer. Cells were further diluted to 7000 or 50 000 cells/mL for experiments.
For recovery experiments, 700 cells (100 μL) were seeded in 96-well plates and incubated for 48 h while cells reached exponential phase.
For non-recovery experiments, 5000 cells (100 μL) were seeded in 96-well plates and incubated for 48 h while cells reached confluence. This is the same number of cells as per the CO-ADD protocol where 384-well plates were used, but we extended the growth time to 48 h to produce a similar confluency.
Stock solutions were diluted 100 times (to 1% DMSO) to 32 μg/mL in full medium (vortexed briefly) and then serially diluted using a digital pipet (Explorer, Eppendorf, Germany) at a dilution factor of 2 to a final concentration of […].
(c) Dosing experiments: At the specified time after seeding, media was removed from cells, cells were washed with HBSS Ca^2+/Mg^2+ (100 μL), and 100 μL of diluted compounds were added as per Supporting Information - Biology, Figure S4, and incubated for 24 h.
After treatment, solutions were removed, and cells were washed with HBSS Ca^2+/Mg^2+. For non-recovery experiments, viability was determined immediately as described below.
For recovery experiments, fresh media was added to plates (100 μL) and cells were returned to the incubator for another 72 h, after which viability was recorded as described below.
i. MTT assay: 3-[4,5-Dimethylthiazol-2-yl]-2,5-diphenyltetrazolium bromide (MTT) (Sigma-Aldrich, UK) was dissolved in sterile PBS at 5 mg/mL with sonication (20 min), protected from light. […]

Aqueous solubility = format: physicochemical; conditions: thermodynamic from solid
[5] = Human plasma protein binding (PPB); format: in vitro ADME; conditions: human, plasma
[6] = Human liver microsome intrinsic clearance; format: in vitro ADME; conditions: human liver microsomes, NEU
[7] = Rat hepatocyte intrinsic clearance; format: in vitro ADME; conditions: rat hepatocytes, NEU
[8] = test system: S. aureus ATCC 25923 (methicillin-susceptible); assay: In vitro antibacterial activity, MIC (UCL), MSSA; format: cell-based, Staphylococcus aureus; conditions: Staphylococcus aureus; read-out: MSSA MIC
Summary of the method: as §1

Compound: c1ccc(-c2nc3n(c2-c2ccc4c(c2)OCO4)CCCC3)nc1 [OSA_000818]
MIC [1]: 16 µg/mL (≈ 50.1 µM)

Compound: c1ccc(-c2c(-c3ccccn3)nc3n2CCC3)cc1 [OSA_000870]
MIC ([2]; UCL, read-out: MRSA MIC (UCL)): 32 µg/mL (≈ 122 µM)
MIC ([3]; read-out: VRE MIC (UCL)): > 32 µg/mL
solubility (Aqueous solubility; NEU, read-out: Aqueous Solubility (NEU)): 179 µM (≈ 46.8 µg/mL)
fraction unbound ([5]; human plasma, NEU, read-out: Human PPB (NEU) (converted)): 0.15
HLM CLint (NEU) [6]: 64 uL/min/mg protein
Rat Hep CLint (NEU) [7]: 25.9 uL/min/10x6 cells
CC50 at 24 h ([4]; read-out: HEK293 CC50): 3.6 µg/mL (≈ 13.8 µM)

Compound: c1ccc(-c2nc3n(c2-c2ccc4ccoc4c2)CCC3)nc1 [OSA_000829]
MIC [1]: 4 µg/mL (≈ 13.3 µM)

Compound: c1cc(-c2nc3n(c2-c2ccc4c(c2)OCO4)CCC3)ccn1 [OSA_000817]
MIC [1]: > 32 µg/mL

Compound: Cc1ccc(-c2c(-c3ccccn3)nc3n2CCC3)cc1 [compound 865]
MIC ([2]; 16 h, read-out: MRSA MIC): 4 µg/mL (≈ 14.5 µM)
MIC ([2]; read-out: MRSA MIC): 4 µg/mL (≈ 14.5 µM)
MIC [8]: 1 µg/mL (≈ 3.63 µM)
MIC ([3]; read-out: VRE MIC): 16 µg/mL (≈ 58.1 µM)
solubility (Aqueous solubility; read-out: Aqueous Solubility): 32 µM (≈ 8.81 µg/mL)
fraction unbound ([5]; read-out: Human PPB (converted)): 0.08
Dmax spread between recovery and non-recovery conditions at 24 h, 32 μg/mL [4]: > 20%

Compound: c1ccc(-c2nc3n(c2-c2ccc4c(c2)OCCO4)CCC3)nc1 [OSA_000819]
MIC [1]: 16 µg/mL (≈ 50.1 µM)

Now from value to compound, other results behind:

MIC [1]: 32 µg/mL (≈ 105 µM)
Compound: c1ccc(-c2nc3n(c2-c2ccc4c(c2)OCC4)CCC3)nc1 [OSA_000828]

MIC [1]: 4 µg/mL (≈ 13 µM)
Compound: CSc1cccc(-c2c(-c3ccccn3)nc3n2CCC3)c1 [OSA_000826]

MIC [1]: 32 µg/mL (≈ 105 µM)
Compound: c1ccc(-c2nc3n(c2-c2ccc4c(c2)CCO4)CCC3)nc1 [OSA_000827]

MIC ([2]; read-out: MRSA MIC): 4 µg/mL (≈ 12.2 µM)
MIC ([3]; read-out: VRE MIC): 8 µg/mL (≈ 24.4 µM)
Compound: c1ccc(-c2nc3ccccn3c2-c2ccc3sccc3c2)nc1 [compound 871]
Dmax spread between recovery and non-recovery conditions at 24 h, 32 μg/mL [4]: > 20%
